# Measured values from patent US20060069132A1, “Azolecarboxamide herbicides” (priority 2004, published 2006).
# Where two headings read alike, the source gives them in different places.
# Legend:
# [1] = tested on: barnyardgrass; assay: Test A pre-/postemergence herbicide test; format: in vivo, Echinochloa crus-galli; details: for pest or weed control at 500 g/ha / pest or weed control at 2000 g/ha: Echinochloa crus-galli, 240 h
# Outline: (§1)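 Both application timings were run together: directed soil spray over freshly planted seeds in sandy loam, and runoff spray onto 2–10 cm seedlings. Evaluation after ~10 days in greenhouse used a 0–100 visual scale versus untreated controls.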
# [2] = tested on: large crabgrass; assay: Test A pre-/postemergence herbicide test; format: in vivo, Digitaria sanguinalis; details: for pest or weed control at 500 g/ha / pest or weed control at 2000 g/ha: Digitaria sanguinalis, 240 h
# Outline: as §1
# [3] = tested on: morningglory; assay: Test A pre-/postemergence herbicide test; format: in vivo, Ipomoea spp.; details: for pest or weed control at 500 g/ha / pest or weed control at 2000 g/ha: Ipomoea, 240 h
# Outline: as §1
# [4] = tested on: Surinam grass; assay: Test C pre-/postemergence herbicide test; format: in vivo, Urochloa decumbens; details: for Plant response rating (0 = no effect, 100 = complete control), Surinam Grass / pest or weed control at 62 g/ha: 62 g ai/ha; for pest or weed control at 250 g/ha: 250 g ai/ha
# Outline: (§2)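 Emerged plants at the 1- to 4-leaf stage (2–18 cm), or freshly planted seeds, received test chemicals in a non-phytotoxic solvent mixture with surfactant. Response was visually scored against controls after 12 to 14 days in the greenhouse, on a 0 (no effect) to 100 (complete control) scale.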
# [5] = tested on: common (oilseed) sunflower; assay: Test C pre-/postemergence herbicide test; format: in vivo, Helianthus annuus; details: for pest or weed control at 62 g/ha: 62 g ai/ha
# Outline: as §2
# [6] = tested on: rice; assay: Test C flooded paddy test; format: in vivo, Oryza sativa
# Outline: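 Postemergence sprays applied to plants 2 to 18 cm tall (1- to 4-leaf stage); paddy species grown to 2-leaf stage under flooding. After 12 to 14 days in greenhouse, visual rating versus untreated controls on 0–100 scale (0 no effect, 100 complete control).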
# [7] = tested on: barnyardgrass; assay: Test C flooded paddy test; format: in vivo, Echinochloa crus-galli
# Outline: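 Injury scored visually against controls on a 0 (no effect) to 100 (complete control) scale, 12 to 14 days after treatment in greenhouse. Flooded paddy plants treated at 2-leaf stage; postemergence plants at 1- to 4-leaf stage, 2 to 18 cm tall.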
# [8] = tested on: rice; assay: Test B pre-/postemergence herbicide test; format: in vivo, Oryza sativa; details: Oryza sativa, pre-emergence, 336 h; for plant injury at 500 g/ha: 500 g ai/ha; for plant injury at 125 g/ha: 125 g ai/ha
# Outline: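 Seeds were planted and treated preemergence with compounds formulated in a non-phytotoxic solvent mixture containing surfactant, while plants at the 1- to 4-leaf stage (2 to 18 cm) received postemergence sprays. Flooded paddy plants were grown to the 2-leaf stage. After 13 to 15 days in a greenhouse, injury was visually rated 0–100 against untreated controls.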
# [9] = Urochloa decumbens, pre-emergence, 312 h, 125 g ai/ha, scale 0 (no effect) to 100 (complete control), visual, 12 to 14 days, read-out: Plant response rating, Surinam Grass
# [10] = Helianthus annuus, pre-emergence, 125 g ai/ha, scale 0 (no effect) to 100 (complete control), visual, 12 to 14 days, read-out: Plant response rating, Sunflower
# [11] = Postemergence, 500 g ai/ha, 0 to 100 scale, 0 no effect, 100 complete control
# [12] = Postemergence, 2000 g ai/ha, 0 to 100 scale, 0 no effect, 100 complete control
# [13] = Preemergence, 500 g ai/ha, visual rating, 0 to 100 scale (0 no effect, 100 complete control)
# [14] = Preemergence, 2000 g ai/ha, visual rating, 0 to 100 scale (0 no effect, 100 complete control)
# [15] = 125 g ai/ha, scale 0 (no effect) to 100 (complete control), visual, 12 to 14 days, preemergence
# [16] = 62 g ai/ha, scale 0 to 100 (0 no effect, 100 complete control)
# [17] = 250 g ai/ha, scale of 0 to 100, 0 is no effect, 100 is complete control
# [18] = 500 g ai/ha, visual rating after 12 to 14 days, scale 0 to 100 (0 no effect, 100 complete control)
# [19] = Preemergence, 500 g ai/ha, scale 0 to 100, 0 no effect, 100 complete control
# [20] = Urochloa decumbens, pre-emergence, 312 h, preemergence, scale 0 to 100, read-out: Plant response rating, Surinam Grass
# [21] = Helianthus annuus, pre-emergence, preemergence, scale 0 to 100, read-out: Plant response rating, Sunflower
smiles,measurement,setting,value
"CCOC(=O)c1cccc(NC(=O)c2cc(C(C)(C)C)nn2CC)c1 [Compound 80, ethyl 3-[[[3-(1,1-dimethylethyl)-1-ethyl-1H-pyrazol-5-yl]carbonyl]-amino]benzoate]",pest or weed control at 500 g/ha,"[1]; post-emergence, Postemergence, 500 g ai/ha, 0 to 100 scale, 0 no effect, 100 complete control, read-out: Plant response rating, Barnyardgrass",90%
same,pest or weed control at 2000 g/ha,"[1]; post-emergence, Postemergence, 2000 g ai/ha, 0 to 100 scale, 0 no effect, 100 complete control, read-out: Plant response rating, Barnyardgrass",90%
same,pest or weed control at 500 g/ha,"[1]; pre-emergence, Preemergence, 500 g ai/ha, visual rating, 0 to 100 scale (0 no effect, 100 complete control), read-out: Barnyardgrass plant response rating",10%
same,pest or weed control at 2000 g/ha,"[1]; pre-emergence, Preemergence, 2000 g ai/ha, 0 to 100 scale, 0 no effect, 100 complete control, read-out: Barnyardgrass plant response rating",35%
same,pest or weed control at 500 g/ha,"[2]; post-emergence, Postemergence, 500 g ai/ha, 0 to 100 scale, 0 no effect, 100 complete control, read-out: Plant response rating, Crabgrass, Large",70%
same,pest or weed control at 2000 g/ha,"[2]; post-emergence, Postemergence, 2000 g ai/ha, 0 to 100 scale, 0 no effect, 100 complete control, read-out: Plant response rating, Crabgrass, Large",90%
same,pest or weed control at 500 g/ha,"[2]; pre-emergence, Preemergence, 500 g ai/ha, visual rating, 0 to 100 scale (0 no effect, 100 complete control), read-out: Crabgrass, Large plant response rating",10%
same,pest or weed control at 2000 g/ha,"[2]; pre-emergence, Preemergence, 2000 g ai/ha, 0 to 100 scale, 0 no effect, 100 complete control, read-out: Crabgrass, Large plant response rating",30%
same,pest or weed control at 500 g/ha,"[3]; post-emergence, Postemergence, 500 g ai/ha, 0 to 100 scale, 0 no effect, 100 complete control, read-out: Plant response rating, Morningglory",40%
same,pest or weed control at 2000 g/ha,"[3]; post-emergence, Postemergence, 2000 g ai/ha, 0 to 100 scale, 0 no effect, 100 complete control, read-out: Plant response rating, Morningglory",50%
same,pest or weed control at 500 g/ha,"[3]; pre-emergence, Preemergence, 500 g ai/ha, visual rating, 0 to 100 scale (0 no effect, 100 complete control), read-out: Morningglory plant response rating",15%
same,pest or weed control at 2000 g/ha,"[3]; pre-emergence, Preemergence, 2000 g ai/ha, 0 to 100 scale, 0 no effect, 100 complete control, read-out: Morningglory plant response rating",30%
same,"Plant response rating (0 = no effect, 100 = complete control), Surinam Grass",[4]; preemergence,0
same,pest or weed control at 250 g/ha,"[4]; Urochloa decumbens, post-emergence, 312 h, Postemergence, scale 0 to 100, 0 no effect, 100 complete control, read-out: Plant response rating, Surinam Grass",80%
same,pest or weed control at 125 g/ha,"[4]; Urochloa decumbens, post-emergence, 312 h, postemergence, 125 g ai/ha, scale 0 to 100, read-out: Plant response rating, Surinam Grass",80%
same,pest or weed control at 62 g/ha,"[4]; Urochloa decumbens, post-emergence, 312 h, postemergence, scale 0 to 100, read-out: Plant response rating, Surinam Grass",80%
same,pest or weed control at 31 g/ha,"[4]; Urochloa decumbens, pre-emergence, 312 h, 31 g ai/ha, preemergence, scale 0 to 100, read-out: Plant response rating, Surinam Grass",0%
same,pest or weed control at 125 g/ha,[4]; [9],10%
same,pest or weed control at 31 g/ha,"[5]; Helianthus annuus, pre-emergence, 31 g ai/ha, preemergence, scale 0 to 100, read-out: Plant response rating, Sunflower",0%
same,pest or weed control at 125 g/ha,[5]; [10],0%
same,plant injury at 62 g/ha,"[6]; Oryza sativa, 62 g ai/ha, scale 0 to 100 (0 no effect, 100 complete control), read-out: Rice plant response rating",20%
same,plant injury at 125 g/ha,"[6]; Oryza sativa, 125 g ai/ha, scale of 0 to 100, 0 is no effect, 100 is complete control, read-out: Rice plant response rating",40%
same,plant injury at 250 g/ha,"[6]; Oryza sativa, 250 g ai/ha, scale of 0 to 100, 0 is no effect, 100 is complete control, read-out: Rice plant response rating",40%
same,plant injury at 500 g/ha,"[6]; Oryza sativa, 500 g ai/ha, visual rating after 12 to 14 days, scale 0 to 100 (0 no effect, 100 complete control), read-out: Plant response rating, Rice",40%
same,pest or weed control at 62 g/ha,"[7]; Echinochloa crus-galli, 62 g ai/ha, scale 0 to 100 (0 no effect, 100 complete control), read-out: Barnyardgrass plant response rating",0%
same,pest or weed control at 125 g/ha,"[7]; Echinochloa crus-galli, 125 g ai/ha, scale of 0 to 100, 0 is no effect, 100 is complete control, read-out: Barnyardgrass plant response rating",20%
same,pest or weed control at 250 g/ha,"[7]; Echinochloa crus-galli, 250 g ai/ha, scale of 0 to 100, 0 is no effect, 100 is complete control, read-out: Barnyardgrass plant response rating",40%
same,pest or weed control at 500 g/ha,"[7]; Echinochloa crus-galli, 500 g ai/ha, visual rating after 12 to 14 days, scale 0 to 100 (0 no effect, 100 complete control), read-out: Plant response rating, Barnyardgrass",60%
CC(=O)c1cccc(NC(=O)c2cc(C(C)(C)C)nn2CCF)c1 [Compound 128],Barnyardgrass plant response rating,[1]; [11],70
same,"Plant response rating, Barnyardgrass",[1]; [12],80
same,Barnyardgrass plant response rating,[1]; [13],55
same,Barnyardgrass plant response rating,[1]; [14],85
same,"Crabgrass, Large plant response rating",[2]; [11],60
same,"Plant response rating, Crabgrass, Large",[2]; [12],70
same,"Crabgrass, Large plant response rating",[2]; [13],90
same,"Crabgrass, Large plant response rating",[2]; [14],100
same,Morningglory plant response rating,[3]; [11],10
same,"Plant response rating, Morningglory",[3]; [12],15
same,Morningglory plant response rating,[3]; [13],45
same,Morningglory plant response rating,[3]; [14],85
same,"Plant response rating (0 = no effect, 100 = complete control), Surinam Grass",[4]; preemergence,30
same,"Plant response rating, Surinam Grass",[4]; [15],60
same,"Plant response rating, Sunflower",[5]; [15],50
same,Rice plant response rating,[6]; [16],25
same,Rice plant response rating,"[6]; 125 g ai/ha, scale 0 to 100 (0 no effect, 100 complete control)",40
same,Rice plant response rating,[6]; [17],70
same,"Plant response rating, Rice",[6]; [18],70
same,Barnyardgrass plant response rating,[7]; [16],30
same,Barnyardgrass plant response rating,"[7]; 125 g ai/ha, scale of 0 to 100, 0 is no effect, 100 is complete control",35
same,Barnyardgrass plant response rating,[7]; [17],60
same,"Plant response rating, Barnyardgrass",[7]; [18],65
"CCn1nc(C(C)(C)C)cc1C(=O)Nc1cc(C(=O)N(C)C)ccn1 [Compound 156, 2-[[[3-(1,1-dimethylethyl)-1-ethyl-1H-pyrazol-5-yl]carbonyl]amino]-N,N-dimethyl-4-pyridinecarboxamide]",plant injury at 500 g/ha,"[8]; visual rating 0-100, 0 no effect, 100 complete control, read-out: Plant response rating, Rice",100%
same,plant injury at 125 g/ha,"[8]; preemergence, 0 to 100 scale, 0 is no effect, 100 is complete control, read-out: Plant response rating, Rice",90%
same,Surinam Grass plant response rating,[4]; [19],95
same,pest or weed control at 62 g/ha,[4]; [20],75%
same,pest or weed control at 125 g/ha,[4]; [9],88%
same,pest or weed control at 62 g/ha,[5]; [21],25%
same,pest or weed control at 125 g/ha,[5]; [10],45%
same,Sunflower plant response rating,[5]; [19],85
"CCNC(=O)c1cccc(NC(=O)c2nn(C(C)(C)C)cc2Br)c1 [Compound 221, 4-bromo-1-(1,1-dimethylethyl)-N-[3-[(ethylamino)carbonyl]phenyl]-1H-pyrazole-3-carboxamide]",plant injury at 125 g/ha,"[8]; 0 = no effect, 100 = complete control, read-out: Rice plant response rating (0 to 100 scale)",0%
same,plant injury at 500 g/ha,"[8]; visual rating, 0 = no effect, 100 = complete control, read-out: Plant response rating, Rice",20%
same,pest or weed control at 62 g/ha,[4]; [20],0%
same,pest or weed control at 250 g/ha,"[4]; Urochloa decumbens, pre-emergence, 312 h, scale 0-100, read-out: Plant response rating, Surinam Grass",10%
same,pest or weed control at 500 g/ha,"[4]; Urochloa decumbens, pre-emergence, 312 h, 500 g ai/ha, scale 0 to 100 (0 no effect, 100 complete control), visual, 12 to 14 days, read-out: Plant response rating, Surinam Grass",45%
same,pest or weed control at 62 g/ha,[5]; [21],0%
same,pest or weed control at 250 g/ha,"[5]; Helianthus annuus, pre-emergence, 250 g ai/ha, scale 0-100, read-out: Plant response rating, Sunflower",0%
same,pest or weed control at 500 g/ha,"[5]; Helianthus annuus, pre-emergence, 500 g ai/ha, scale 0 to 100 (0 no effect, 100 complete control), visual, 12 to 14 days, read-out: Plant response rating, Sunflower",30%
